pIC50: −log10 of the molar value.
What was measured:
human FAK = human FAK (Homo sapiens (Human), UniProt Q05397); settings: read-out: FAK IC50
human JAK2 = human JAK2 (Homo sapiens (Human), UniProt O60674); settings: read-out: JAK2 IC50
Sequence of human JAK2 (O60674 815-1132): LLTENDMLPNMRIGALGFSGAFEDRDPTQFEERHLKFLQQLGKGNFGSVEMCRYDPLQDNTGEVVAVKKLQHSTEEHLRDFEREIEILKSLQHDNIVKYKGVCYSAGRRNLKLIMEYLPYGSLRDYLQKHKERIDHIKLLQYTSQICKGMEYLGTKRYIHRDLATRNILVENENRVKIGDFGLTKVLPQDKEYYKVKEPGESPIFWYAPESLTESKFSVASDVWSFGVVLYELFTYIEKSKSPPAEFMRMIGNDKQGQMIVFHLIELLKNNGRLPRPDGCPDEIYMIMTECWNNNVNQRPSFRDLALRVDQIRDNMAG

Sequence of human FAK (Q05397 whole entry): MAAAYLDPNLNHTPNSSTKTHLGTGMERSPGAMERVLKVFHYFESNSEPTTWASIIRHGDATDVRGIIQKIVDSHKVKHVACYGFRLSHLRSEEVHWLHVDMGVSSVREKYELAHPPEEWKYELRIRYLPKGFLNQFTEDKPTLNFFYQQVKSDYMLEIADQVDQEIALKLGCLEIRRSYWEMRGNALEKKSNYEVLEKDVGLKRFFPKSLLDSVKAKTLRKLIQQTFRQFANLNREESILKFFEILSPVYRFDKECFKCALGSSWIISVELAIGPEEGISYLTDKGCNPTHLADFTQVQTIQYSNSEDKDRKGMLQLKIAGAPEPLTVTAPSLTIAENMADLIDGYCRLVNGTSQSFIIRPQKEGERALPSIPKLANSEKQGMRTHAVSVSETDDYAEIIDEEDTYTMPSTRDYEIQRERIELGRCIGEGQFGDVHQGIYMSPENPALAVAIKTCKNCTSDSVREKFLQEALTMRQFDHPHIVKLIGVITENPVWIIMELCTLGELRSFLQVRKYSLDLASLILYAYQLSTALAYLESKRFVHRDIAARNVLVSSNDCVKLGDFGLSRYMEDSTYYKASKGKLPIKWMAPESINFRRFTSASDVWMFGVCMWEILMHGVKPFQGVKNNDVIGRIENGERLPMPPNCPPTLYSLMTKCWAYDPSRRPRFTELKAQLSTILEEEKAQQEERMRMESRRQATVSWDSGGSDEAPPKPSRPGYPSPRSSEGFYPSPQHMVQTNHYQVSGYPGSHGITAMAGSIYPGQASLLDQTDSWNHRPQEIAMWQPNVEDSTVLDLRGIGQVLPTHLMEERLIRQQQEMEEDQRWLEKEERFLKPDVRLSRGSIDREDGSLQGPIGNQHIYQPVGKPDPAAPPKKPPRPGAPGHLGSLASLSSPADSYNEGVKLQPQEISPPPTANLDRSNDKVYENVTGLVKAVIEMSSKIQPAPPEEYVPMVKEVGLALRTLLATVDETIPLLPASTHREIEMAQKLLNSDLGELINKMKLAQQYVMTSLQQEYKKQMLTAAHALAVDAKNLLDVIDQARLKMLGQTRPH

SMILES	pIC50 (human FAK)	pIC50 (human JAK2)
CS(=O)(=O)c1cccc(-c2cccn3nc(Nc4cccc(N5CCOCC5)c4)nc23)c1 [Example 29, [8-(3-Methanesulfonyl-phenyl)-[1,2,4]triazolo[1,5-a]pyridin-2-yl]-(3-morpholin-4-yl-phenyl)-amine]	5.87	8.25
CN1CCN(c2ccc(Nc3nc4c(-c5ccc(S(C)(=O)=O)cc5)cccn4n3)cc2)CC1 [Example 32, [8-(4-Methanesulfonyl-phenyl)-[1,2,4]triazolo[1,5-a]pyridin-2-yl]-[4-(4-methyl-piperazin-1-yl)-phenyl]-amine]	6.39	8.62
CN1CCN(c2cccc(Nc3nc4c(-c5ccc(S(C)(=O)=O)cc5)cccn4n3)c2)CC1 [Example 35, [8-(4-Methanesulfonyl-phenyl)-[1,2,4]triazolo[1,5-a]pyridin-2-yl]-[3-(4-methyl-piperazin-1-yl)-phenyl]-amine]	5.98	8.89
COc1ccc(Nc2nc3c(Nc4ccc(S(C)(=O)=O)cc4)cccn3n2)cc1 [Example 38, N(8)-(4-Methanesulfonyl-phenyl)-N(2)-(4-methoxy-phenyl)-[1,2,4]triazolo[1,5-a]pyridine-2,8-diamine]	5.00	6.33
COc1ccc(Nc2nc3c(-c4cn[nH]c4)cccn3n2)cc1 [Example 39, (4-Methoxy-phenyl)-[8-(1H-pyrazol-4-yl)-[1,2,4]triazolo[1,5-a]pyridin-2-yl]-amine]	5.63	7.49
COc1cccc(Nc2nc3c(-c4ccc(S(C)(=O)=O)cc4)cccn3n2)c1 [Example 40, [8-(4-Methanesulfonyl-phenyl)-[1,2,4]triazolo[1,5-a]pyridin-2-yl]-(3-methoxy-phenyl)-amine]	5.87	9.00
COc1ccc(Nc2nc3c(-c4cnn(S(C)(=O)=O)c4)cccn3n2)cc1 [Example 42, [8-(1-Methanesulfonyl-1H-pyrazol-4-yl)-[1,2,4]triazolo[1,5-a]pyridin-2-yl]-(4-methoxy-phenyl)-amine]	6.29	8.52
CS(=O)(=O)c1ccc(-c2cccn3nc(Nc4ccc(CN5CCOCC5)cc4)nc23)cc1 [Example 43, [8-(4-Methanesulfonyl-phenyl)-[1,2,4]triazolo[1,5-a]pyridin-2-yl]-(4-morpholin-4-ylmethyl-phenyl)-amine]	5.93	8.66
CN1CCN(Cc2ccc(Nc3nc4c(-c5ccc(S(C)(=O)=O)cc5)cccn4n3)cc2)CC1 [Example 44, [8-(4-Methanesulfonyl-phenyl)-[1,2,4]triazolo[1,5-a]pyridin-2-yl]-[4-(4-methyl-piperazin-1-ylmethyl)-phenyl]-amine]	5.95	8.62
CS(=O)(=O)c1ccc(-c2cccn3nc(Nc4cccc(CN5CCOCC5)c4)nc23)cc1 [Example 46, [8-(4-Methanesulfonyl-phenyl)-[1,2,4]triazolo[1,5-a]pyridin-2-yl]-(3-morpholin-4-ylmethyl-phenyl)-amine]	6.02	9.22
COc1ccc(Nc2nc3c(Nc4ccccc4S(C)(=O)=O)cccn3n2)cc1 [Example 47, N(8)-(2-Methanesulfonyl-phenyl)-N(2)-(4-methoxy-phenyl)-[1,2,4]triazolo[1,5-a]pyridine-2,8-diamine]	5.52	7.89
CN1CCN(c2ccc(Nc3nc4c(-c5ccc(CS(C)(=O)=O)cc5)cccn4n3)cc2)CC1 [Example 48, [8-(4-Methanesulfonylmethyl-phenyl)-[1,2,4]triazolo[1,5-a]pyridin-2-yl]-[4-(4-methyl-piperazin-1-yl)-phenyl]-amine]	5.76	9.15
CN1CCN(C2CCN(c3ccc(Nc4nc5c(-c6ccc(S(C)(=O)=O)cc6)cccn5n4)cc3)CC2)CC1 [Example 51, [8-(4-Methanesulfonyl-phenyl)-[1,2,4]triazolo[1,5-a]pyridin-2-yl]-{4-[4-(4-methyl-piperazin-1-yl)-piperidin-1-yl]-phenyl}-amine]	6.77	8.74
CC(C)S(=O)(=O)c1ccc(-c2cccn3nc(Nc4ccc(N5CCN(C)CC5)cc4)nc23)cc1 [Example 52, [4-(4-Methyl-piperazin-1-yl)-phenyl]-{8-[4-(propane-2-sulfonyl)-phenyl]-[1,2,4]triazolo[1,5-a]pyridin-2-yl}-amine]	6.51	8.68
CC(C)S(=O)(=O)c1ccc(-c2cccn3nc(Nc4cccc(N5CCN(C)CC5)c4)nc23)cc1 [Example 53, [3-(4-Methyl-piperazin-1-yl)-phenyl]-{8-[4-(propane-2-sulfonyl)-phenyl]-[1,2,4]triazolo[1,5-a]pyridin-2-yl}-amine]	6.06	8.89
COc1ccccc1-c1cccn2nc(Nc3ccc(N4CCN(C)CC4)cc3)nc12 [Example 55, [8-(2-Methoxy-phenyl)-[1,2,4]triazolo[1,5-a]pyridin-2-yl]-[4-(4-methyl-piperazin-1-yl)-phenyl]-amine]	5.52	7.42
COc1ccccc1-c1cccn2nc(Nc3cccc(N4CCN(C)CC4)c3)nc12 [Example 56, [8-(2-Methoxy-phenyl)-[1,2,4]triazolo[1,5-a]pyridin-2-yl]-[3-(4-methyl-piperazin-1-yl)-phenyl]-amine]	5.52	7.57
CN1CCN(C2CCN(c3cccc(Nc4nc5c(-c6ccc(S(C)(=O)=O)cc6)cccn5n4)c3)CC2)CC1 [Example 58, [8-(4-Methanesulfonyl-phenyl)-[1,2,4]triazolo[1,5-a]pyridin-2-yl]-{3-[4-(4-methyl-piperazin-1-yl)-piperidin-1-yl]-phenyl}-amine]	5.62	8.82
CN1CCN(c2ccc(Nc3nc4c(-c5cccc(S(C)(=O)=O)c5)cccn4n3)cc2)CC1 [Example 59, [8-(3-Methanesulfonyl-phenyl)-[1,2,4]triazolo[1,5-a]pyridin-2-yl]-[4-(4-methyl-piperazin-1-yl)-phenyl]-amine]	5.59	8.48
CN1CCN(c2cccc(Nc3nc4c(-c5cccc(S(C)(=O)=O)c5)cccn4n3)c2)CC1 [Example 60, [8-(3-Methanesulfonyl-phenyl)-[1,2,4]triazolo[1,5-a]pyridin-2-yl]-[3-(4-methyl-piperazin-1-yl)-phenyl]-amine]	5.90	8.19
CN1CCC(c2cccc(Nc3nc4c(-c5ccc(S(C)(=O)=O)cc5)cccn4n3)c2)CC1 [Example 61, [8-(4-Methanesulfonyl-phenyl)-[1,2,4]triazolo[1,5-a]pyridin-2-yl]-[3-(1-methyl-piperidin-4-yl)-phenyl]-amine]	6.58	9.15
CN1CCN(c2ccc(Nc3nc4c(-c5ccc(N(C)S(C)(=O)=O)cc5)cccn4n3)cc2)CC1 [Example 62, N-Methyl-N-(4-{2-[4-(4-methyl-piperazin-1-yl)-phenylamino]-[1,2,4]triazolo[1,5-a]pyridin-8-yl}-phenyl)-methanesulfonamide]	6.00	9.22
CN1CCN(c2cccc(Nc3nc4c(-c5ccc(N(C)S(C)(=O)=O)cc5)cccn4n3)c2)CC1 [Example 63, N-Methyl-N-(4-{2-[3-(4-methyl-piperazin-1-yl)-phenylamino]-[1,2,4]triazolo[1,5-a]pyridin-8-yl}-phenyl)-methanesulfonamide]	5.87	9.22

— patent publication US8501936B2 (priority 2009, dated 2013)
